Data on one compound can be found in publication PMC6273978, “Synthesis and Pharmacological Evaluation of Novel Pleuromutilin Derivatives with Substituted Benzimidazole Moieties” (Molecules, 2016).

Molecules are shown by their SMILES. pIC50: −log10 of the molar value.

Common to all, as to test: Cytochrome P450 inhibition cocktail assay, human liver microsomes
Type in all cases: in vitro ADME

The target of one assay is T1, CYP2D6 (Homo sapiens, UniProt P10635).
T1 construct: Twenty microliters of human liver microsomes (final concentration of 0.3 mg/mL); from tissue; host or cells: human liver microsomes
T1 sequence (P10635 whole entry): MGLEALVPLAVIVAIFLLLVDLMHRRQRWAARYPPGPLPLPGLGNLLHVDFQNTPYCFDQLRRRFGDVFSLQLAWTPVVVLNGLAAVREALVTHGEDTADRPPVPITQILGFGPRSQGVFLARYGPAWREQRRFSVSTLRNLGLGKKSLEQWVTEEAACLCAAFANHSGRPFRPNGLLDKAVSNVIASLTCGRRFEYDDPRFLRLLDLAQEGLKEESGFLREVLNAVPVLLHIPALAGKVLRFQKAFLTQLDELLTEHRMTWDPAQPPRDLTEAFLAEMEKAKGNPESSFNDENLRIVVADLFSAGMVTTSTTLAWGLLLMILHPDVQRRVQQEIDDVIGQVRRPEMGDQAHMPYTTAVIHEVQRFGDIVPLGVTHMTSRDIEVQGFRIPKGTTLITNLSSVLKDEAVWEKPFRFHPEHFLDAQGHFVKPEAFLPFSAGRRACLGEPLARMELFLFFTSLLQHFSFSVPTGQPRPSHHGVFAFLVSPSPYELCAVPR
The following applies: probe dextromethorphan, metabolite dextrophan. How it is done: (§1) The cytochrome P450 (CYP) proteins form a large family of heme proteins that catalyze many reactions involved xenobiotic metabolism and biosynthesis of cholesterol, steroids, and other lipid components. Some chemicals could affect the disposition of conventional pharmaceuticals through the inhibition of CYP450 enzymes. […] The selective probe substrate concentrations were prepared near to its respective Km value, and the compound 3 concentration range is from […].
(§2) Compound 3 was screened for its ability to inhibit cytochrome P450 using a cocktail assay described previously. Briefly, 50 μL of compound 3 was added to 96-well plates, with final concentrations of 0.05, 0.1, 0.5, 1, 10, 50, and 100 μM, respectively. Twenty microliters of human liver microsomes (final concentration of 0.3 mg/mL) and 20 μL of probe substrates (Table 3) in 0.1 M Tris were added. After preincubation at 37 °C for 10 min, 10 μL of NADPH was added (final concentration of 1 mM), and the reaction started to incubate at the same temperature for 15 min. The reactions were then quenched by the addition of 100 μL of acetonitrile with a mixture of propranolol and nadolol (50 nM) used as an internal standard. After reactions were finished, the plates were centrifuged and the supernatants were analyzed for the five metabolites (Table 3) by LC/MS/MS.

In a further assay the target is T2, CYP1A2 (Homo sapiens, UniProt P05177).
T2 construct: Twenty microliters of human liver microsomes (final concentration of 0.3 mg/mL); from tissue; host or cells: human liver microsomes
T2 sequence (P05177 1-516): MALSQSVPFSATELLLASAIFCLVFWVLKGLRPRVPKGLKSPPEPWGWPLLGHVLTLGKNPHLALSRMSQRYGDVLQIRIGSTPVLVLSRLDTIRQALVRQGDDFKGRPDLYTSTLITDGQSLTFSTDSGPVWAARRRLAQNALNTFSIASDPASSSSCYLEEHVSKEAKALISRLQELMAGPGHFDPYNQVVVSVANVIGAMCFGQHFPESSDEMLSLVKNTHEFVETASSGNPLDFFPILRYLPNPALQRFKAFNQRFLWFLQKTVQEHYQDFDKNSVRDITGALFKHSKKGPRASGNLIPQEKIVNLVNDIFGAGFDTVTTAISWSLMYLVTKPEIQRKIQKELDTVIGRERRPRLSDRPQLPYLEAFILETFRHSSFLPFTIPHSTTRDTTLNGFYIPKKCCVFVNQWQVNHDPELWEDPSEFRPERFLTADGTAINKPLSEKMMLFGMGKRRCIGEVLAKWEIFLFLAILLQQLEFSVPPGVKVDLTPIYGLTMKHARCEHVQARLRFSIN
The conditions noted are these: probe phenacetin, metabolite acetaminophen. How it is done: as §1, §2

For a further assay, the target named is T3, CYP2C9 (Homo sapiens, UniProt P11712).
T3 construct: Twenty microliters of human liver microsomes (final concentration of 0.3 mg/mL); from tissue; host or cells: human liver microsomes
T3 sequence (P11712 whole entry): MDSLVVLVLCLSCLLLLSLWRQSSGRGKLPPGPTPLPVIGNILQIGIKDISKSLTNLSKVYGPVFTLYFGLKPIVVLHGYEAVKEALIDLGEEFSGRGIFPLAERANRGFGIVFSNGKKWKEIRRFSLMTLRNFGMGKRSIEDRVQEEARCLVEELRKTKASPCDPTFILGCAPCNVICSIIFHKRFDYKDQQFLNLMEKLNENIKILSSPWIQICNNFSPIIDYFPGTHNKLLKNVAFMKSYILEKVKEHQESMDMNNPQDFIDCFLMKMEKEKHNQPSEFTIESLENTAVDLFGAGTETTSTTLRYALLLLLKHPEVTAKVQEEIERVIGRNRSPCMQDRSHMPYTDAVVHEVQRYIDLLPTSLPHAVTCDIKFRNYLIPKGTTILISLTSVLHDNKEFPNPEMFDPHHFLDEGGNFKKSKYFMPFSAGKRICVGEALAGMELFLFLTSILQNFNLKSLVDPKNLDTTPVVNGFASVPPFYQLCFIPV
The conditions noted are these: probe diclofenac, metabolite 4-OH-diclofenac. Here is the method:
as §1, §2

The target of a further assay is T4, CYP2C19 (Homo sapiens, UniProt P33261).
T4 construct: Twenty microliters of human liver microsomes (final concentration of 0.3 mg/mL); from tissue; host or cells: human liver microsomes
T4 sequence (P33261 whole entry): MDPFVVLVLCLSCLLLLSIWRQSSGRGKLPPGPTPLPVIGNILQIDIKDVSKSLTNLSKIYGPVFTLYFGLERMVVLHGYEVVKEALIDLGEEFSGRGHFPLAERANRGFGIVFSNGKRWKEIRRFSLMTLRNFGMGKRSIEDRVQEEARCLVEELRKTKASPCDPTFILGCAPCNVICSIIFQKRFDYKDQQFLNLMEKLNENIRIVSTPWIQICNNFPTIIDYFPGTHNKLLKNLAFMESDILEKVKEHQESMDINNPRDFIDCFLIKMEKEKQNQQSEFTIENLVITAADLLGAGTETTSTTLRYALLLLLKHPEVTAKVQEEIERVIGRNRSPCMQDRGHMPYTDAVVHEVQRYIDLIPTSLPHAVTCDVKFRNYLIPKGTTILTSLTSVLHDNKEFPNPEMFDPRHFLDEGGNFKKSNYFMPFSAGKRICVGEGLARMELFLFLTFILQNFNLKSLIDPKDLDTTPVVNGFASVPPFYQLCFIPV
The conditions noted are these: probe mephenytoin, metabolite 4-OH-S-mephenytoin. How it is done:
as §1, §2

A word on the pIC50: it is −log10 of the IC50, conventionally taken in molar units. Consider `C=C[C@]1(C)C[C@@H](OC(=O)CSc2nc3ccc(N)cc3[nH]2)[C@]2(C)[C@H](C)CC[C@]3(CCC(=O)[C@H]32)[C@@H](C)[C@@H]1O` [Compound 3, 14-O-((5-Amino-benzimidazole-2-yl)thioacetyl) Mutilin], for which the pIC50 was < 4.00 at CYP2D6, < 4.30 on CYP1A2, 4.97 on CYP2C9 and < 4.30 at CYP2C19.
